The test system of this assay is SARS-CoV-2. In kind it is cell-based. The following applies: for LRV (log reduction value), reduction of virus compared to the virus control / Virus Titer: solution at 90%.
Where [1] appears, read: incubation 15 seconds at 37° C.
Where [2] appears, read: incubation 15 minutes at 37° C.

Where two headings read alike, the source gives them in different places.

Consider `CCO` [Ethanol], for which the “LRV (log reduction value), reduction of virus compared to the virus control” value is recorded as 4.3 under setting [1], above 4.3 (incubation 5 minutes at 37° C.) and above 4.3 under setting [2]. Also, the “Virus Titer” value is, setting by setting: under setting [1], 0.67 Log10 CCID50 of virus per mL; (incubation 5 minutes at 37° C.) <0.67 Log10 CCID50 of virus per mL; under setting [2], <0.67 Log10 CCID50 of virus per mL. Also, the “virus titer (baseline reached)” value (positive control, contact time not given) was 0.67 log10 CCID50/ml.

Source of the values: US20230233600A1, “IMPROVED VIRUCIDAL FORMULATIONS” (priority 2020, published 2023).
